Read-outs that look alike come from different tables or passages of the source.
Columns and labels:
[1] = test system: MCF10A, a nonmalignant mammary epithelial cell line; experiment: Cell viability assay (PrestoBlue, 72 h), MCF10A; type: cell-based; conditions: for Survival rate at 10 uM MCF10A / MCF-10A Inhibition rate: human, 72 h, 10 µM
Description: (§1) The cells were seeded in 384-well clear plates with a density of 8 × 10^2 cells/well for MCF-10A and BT-549 cell lines, 1 × 10^3 cells/well for MDA-MB-453, and 2 × 10^3 cells/well for MDA-MB-231 overnight. Then cells were treated with the indicated concentrations of test compounds for 72 h. At the end of incubation, 5 μL of PrestoBlue Cell Viability Reagent (Invitrogen, Carlsbad, CA, USA) was added to each well with 50 μL medium. The plates were incubated for an additional 1.5 h at 37 °C in a humidified 5% CO2 atmosphere; the relative fluorescence unit (RFU) in the reaction mixture will then be recorded (Ex560/Em590) by Victor^2-Vplate reader (PerkinElmer, Waltham, MA, USA). The cell lines were chosen based on the mutation status of PTEN and/or TP53: MCF-10A, the nonmalignant mammary epithelial cell line; BT-549 with mutation of PTEN and TP53; MDA-MB-453 with mutation of PTEN; MDA-MB-231 with mutation of TP53[47].

[2] = test system: MDA-MB-453; experiment: Cell viability assay (PrestoBlue, 72 h), MDA-MB-453; type: cell-based; conditions: Homo sapiens; for viability at 10 µM: MDA-MB-453, 72 h, mean of at least two determinations, within ± 15%, read-out: Survival rate at 10 uM MDA-MB-453; for IC50: MDA-MB-453
Description: as §1

[3] = test system: MDA-MB-231; experiment: Cell viability assay (PrestoBlue, 72 h), MDA-MB-231; type: cell-based, human; conditions: for viability at 10 µM / IC50: Homo sapiens; for viability at 10 µM: MDA-MB-231, 72 h, mean of at least two determinations, within ± 15%, read-out: Survival rate at 10 uM MDA-MB-231; for IC50: MDA-MB-231; for Activity toward TNBC cell lines (in words): TNBC cell lines MDA-MB-231, BT-549, MDA-MB-453
Description: as §1

[4] = test system: BT-549; experiment: Cell viability assay (PrestoBlue, 72 h), BT-549; type: cell-based; conditions: Homo sapiens; for viability at 10 µM: BT-549, 72 h, mean of at least two determinations, within ± 15%, read-out: Survival rate at 10 uM BT-549; for IC50: BT-549
Description: as §1

[5] = target: mu-opioid receptor (MOR) (Homo sapiens, UniProt P35372); experiment: FLIPR calcium assay in CHO-K1/MOR/Gα15 cells
Chain of mu-opioid receptor (MOR) (P35372 whole entry): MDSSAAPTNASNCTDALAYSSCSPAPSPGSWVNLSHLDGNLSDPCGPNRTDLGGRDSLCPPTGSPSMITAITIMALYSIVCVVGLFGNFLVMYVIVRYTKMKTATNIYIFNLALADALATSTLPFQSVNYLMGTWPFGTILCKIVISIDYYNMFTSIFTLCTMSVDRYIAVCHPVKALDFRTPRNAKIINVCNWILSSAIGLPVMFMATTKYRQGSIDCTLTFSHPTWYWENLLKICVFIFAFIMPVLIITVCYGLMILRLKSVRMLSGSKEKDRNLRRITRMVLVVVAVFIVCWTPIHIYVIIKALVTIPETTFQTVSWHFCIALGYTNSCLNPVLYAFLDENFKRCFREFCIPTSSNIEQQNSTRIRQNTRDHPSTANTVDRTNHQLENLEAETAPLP

[6] = Figure 3C, unit inferred, read-out: IC50 values MDA-MB-453
[7] = Figure 3C, unit inferred, read-out: IC50 values MDA-MB-231
[8] = Figure 3C, unit inferred, read-out: IC50 values BT-549
[9] = Figure 4B, read-out: MDA-MB-453 IC50
[10] = Figure 4B, read-out: MDA-MB-231 IC50
[11] = Figure 4B, read-out: BT-549 IC50

| SMILES | Cytotoxicity to MCF10A (in words) [1] | Survival rate at 10 uM MCF10A [1] | viability at 10 µM [2] | viability at 10 µM [3] | viability at 10 µM [4] | further results |
| --- | --- | --- | --- | --- | --- | --- |
| O=C(N/N=C/c1ccc(Br)cc1)c1cc2ccccc2[nH]1 [Compound 11] | low cytotoxicity | 18% | 29% | 56% | 26% |  |
| CCN(CC)S(=O)(=O)c1ccc(C(=O)Nc2nc(-c3ccc(Cl)c(Cl)c3)cs2)cc1 [Compound 7] | low cytotoxicity | 117% | 29% | 6% | 54% | IC50 [2, 6]: > 20 µM; IC50 [3, 7]: 2.52 µM; Activity toward TNBC cell lines (in words) [3]: broader TNBC inhibitions; IC50 [4, 8]: > 20 µM |
| CN(CCNC(=O)c1ccc(C(=O)NCCN(C)Cc2ccccc2)cc1)Cc1ccccc1 [Compound 24] |  |  |  |  |  | EC50 [5]: 5.71 µM |
| Cc1ccc(C(=O)Nc2cnc3ccccc3c2)cc1C [Compound 27] |  |  |  |  |  | EC50 [5]: 4.32 µM |
| CCN(C(=O)c1sc(NC(=O)CCl)c(C#N)c1C)C1CCCCC1 [Compound 5] | low cytotoxicity | 16% | -16% | -12% | 10% |  |
| COc1ccc(C(=O)Nc2nc(-c3ccc(C)cc3C)cs2)cc1 [Compound 16] |  |  |  |  |  | MCF-10A Inhibition rate [1]: 8%; IC50 [2, 9]: 6.3 µM; IC50 [3, 10]: 1.4 µM; IC50 [4, 11]: > 10 µM |
| Cc1ccc(-c2csc(NC(=O)c3ccc(F)cc3)n2)c(C)c1 [Compound 15] |  |  |  |  |  | MCF-10A Inhibition rate [1]: -8%; IC50 [2, 9]: 9.28 µM; IC50 [3, 10]: 1.89 µM; IC50 [4, 11]: > 10 µM |
| Cc1ccc(-c2csc(NC(=O)c3cc(C)on3)n2)c(C)c1 [Compound 20] |  |  |  |  |  | MCF-10A Inhibition rate [1]: 14%; IC50 [2, 9]: > 10 µM; IC50 [3, 10]: > 10 µM; IC50 [4, 11]: > 10 µM |
| COc1ccc(C(=O)Nc2ncc(-c3ccncc3)s2)cc1 [Compound 23] | exhibited cytotoxicity |  |  |  |  | MCF-10A Inhibition rate [1]: 35%; IC50 [2, 9]: 7.93 µM; IC50 [3, 10]: 3.98 µM; Activity toward TNBC cell lines (in words) [3]: moderate micro molar activities; IC50 [4, 11]: 2.6 µM |
| Cc1cc(N2CCN(C)CC2)nc(N2CCN(C(=O)c3ccc(C)c(C)c3)CC2)n1 [Compound 28] |  |  |  |  |  | EC50 [5]: 8.05 µM |
| Cc1ccc2c(Cl)c(C(=O)NCC(c3ccccc3Cl)N(C)C)sc2c1 (stereo not shown) [Compound 25] |  |  |  |  |  | EC50 [5]: 6.12 µM |
| COC(=O)Nc1nc2ccc(C(=O)c3ccccc3)cc2[nH]1 [Compound 12] | low cytotoxicity | 13% | 22% | 35% | 17% |  |
| Cc1cccc(C(=O)Nc2nc(-c3cc(C)ccc3C)cs2)c1 [Compound 9] | low cytotoxicity | 105% | 54% | 51% | 79% |  |
| Nc1c(C(=O)c2ccccc2)sc2nc3c(cc12)CCCC3 [Compound 2] | low cytotoxicity | -5% | 15% | 34% | 16% |  |
| Cc1cc(C)c(-c2csc(NC(=O)c3ccc(Br)cc3)n2)c(C)c1 [Compound 3] | low cytotoxicity | 44% | 21% | -14% | 101% | IC50 [2, 6]: 5.19 µM; IC50 [3, 7]: 1.49 µM; Activity toward TNBC cell lines (in words) [3]: broader TNBC inhibitions; IC50 [4, 8]: > 20 µM |
| Cc1ccc(-c2csc(NC(=O)c3ccc(F)cc3)n2)c(C)c1 [Compound 4] | low cytotoxicity | 101% | 53% | 35% | 106% |  |
| Cc1ccc(-c2csc(NC(=O)c3ccsc3)n2)c(C)c1 [Compound 19] |  |  |  |  |  | MCF-10A Inhibition rate [1]: 14%; IC50 [2, 9]: > 10 µM; IC50 [3, 10]: 2.68 µM; IC50 [4, 11]: > 10 µM |
| Cc1cc(C)c(C)c(-c2csc(NC(=O)c3cc([N+](=O)[O-])cc([N+](=O)[O-])c3)n2)c1C [Compound 10] |  |  | 25% | 21% | 52% | IC50 [2, 6]: > 20 µM; IC50 [3, 7]: 8.4 µM; Activity toward TNBC cell lines (in words) [3]: broader TNBC inhibitions; IC50 [4, 8]: 7.68 µM |
| O=C(Nc1ncc(-c2ccncc2)s1)c1ccc(F)cc1 [Compound 22] |  |  |  |  |  | MCF-10A Inhibition rate [1]: -5%; IC50 [2, 9]: > 10 µM; IC50 [3, 10]: > 10 µM; Activity toward TNBC cell lines (in words) [3]: did not show activities; IC50 [4, 11]: > 10 µM |
| Cn1ncc(Cl)c1C(=O)Nc1ccc2nc(NC(=O)C3CCCCC3)sc2c1 [Compound 6] | low cytotoxicity | 6% | 19% | 33% | 22% |  |
| O=C(Nc1ccc(S(=O)(=O)NC2CCCCC2)cc1)C1CCCCC1 [Compound 26] |  |  |  |  |  | EC50 [5]: 0.56 µM |
| COC(=O)c1ccc(C(=O)Nc2nc(-c3ccc(C)cc3C)cs2)cc1 [Compound 18] |  |  |  |  |  | MCF-10A Inhibition rate [1]: 4%; Selectivity over nonmalignant mammary epithelial cell (in words) ([1]; versus MDA-MB-231): good selectivity; IC50 [2, 9]: > 10 µM; IC50 [3, 10]: 0.62 µM; IC50 [4, 11]: > 10 µM |
| O=C(c1ccc(Oc2ccc([N+](=O)[O-])cc2)cc1)c1ccc(Oc2ccc([N+](=O)[O-])cc2)cc1 [Compound 8] |  |  | 47% | 22% | 88% | IC50 [2, 6]: > 20 µM; IC50 [3, 7]: 10.7 µM; Activity toward TNBC cell lines (in words) [3]: broader TNBC inhibitions; IC50 [4, 8]: > 20 µM |
| O=C(N/N=C/c1ccccc1Cl)c1[nH]c2ccc(Cl)cc2c1-c1ccccc1 [Compound 1] | low cytotoxicity | -7% | 17% | 36% | 12% |  |
